From the supplement of paper PMC13207355
Counter-ions that a name gives are not always drawn.

Assays:
Conditions in all cases: exposure time: 72 h
[1] = test system: E13 (patient-derived glioblastoma stem cells of classical subtype); experiment: surviving fraction (nuclei count normalised to DMSO); higher = more cells surviving (less toxic)
[2] = test system: E21 (patient-derived glioblastoma stem cells of mesenchymal subtype); experiment: as above
[3] = test system: E28 (patient-derived glioblastoma stem cells of classical subtype); experiment: as above
[4] = test system: E31 (patient-derived glioblastoma stem cells of proneural subtype); experiment: as above
[5] = test system: E34 (patient-derived glioblastoma stem cells of proneural subtype); experiment: as above
[6] = test system: E57 (patient-derived glioblastoma stem cells of mesenchymal subtype); experiment: as above
[7] = test system: FT3469 (normal neural stem cell line); experiment: as above
[8] = test system: E13; experiment: phenotypic distance (Euclidean, principal components) from DMSO controls (arbitrary units); higher = stronger morphological change
[9] = test system: E21; experiment: as above
[10] = test system: E28; experiment: as above
[11] = test system: E31; experiment: as above
[12] = test system: E34; experiment: as above
[13] = test system: E57; experiment: as above
[14] = test system: FT3469; experiment: as above
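Wherever phenotypic distance (Euclidean, principal components) from DMSO controls is given: cell Painting imaging in 384-well plates, CellProfiler features reduced to at least 20 principal components, Euclidean distance versus same-plate DMSO vehicle wells (0.1% v/v), median over six images per well.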
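Wherever surviving fraction (nuclei count normalised to DMSO) is given: nuclei counted by high-content imaging of Hoechst-stained cells in laminin-coated 384-well plates, relative to 0.1% DMSO vehicle wells, with staurosporine as cell-death control.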

NC1CCN(c2nc3c(cc2F)c(=O)c(C(=O)O)cn3-c2ccc(F)cc2F)C1 (centres undefined) [Tosufloxacin hydrochloride]
Conditions	phenotypic distance	surviving fraction
[1], 4.1 nM	–	0.947
[1], 12.3 nM	–	1.13
[1], 37 nM	–	0.977
[1], 111.1 nM	–	1.05
[1], 333.3 nM	–	1.01
[1], 1000 nM	–	1
[1], 3000 nM	–	1.04
[2], 4.1 nM	–	0.969
[2], 12.3 nM	–	1.06
[2], 37 nM	–	1.02
[2], 111.1 nM	–	0.964
[2], 333.3 nM	–	0.988
[2], 1000 nM	–	0.989
[2], 3000 nM	–	0.906
[3], 4.1 nM	–	0.969
[3], 12.3 nM	–	1.18
[3], 37 nM	–	0.9
[3], 111.1 nM	–	1.12
[3], 333.3 nM	–	0.975
[3], 1000 nM	–	1.01
[3], 3000 nM	–	0.898
[4], 4.1 nM	–	0.78
[4], 12.3 nM	–	0.861
[4], 37 nM	–	0.987
[4], 111.1 nM	–	0.892
[4], 333.3 nM	–	1.06
[4], 1000 nM	–	0.836
[4], 3000 nM	–	0.849
[5], 4.1 nM	–	0.948
[5], 12.3 nM	–	0.869
[5], 37 nM	–	0.977
[5], 111.1 nM	–	0.985
[5], 333.3 nM	–	0.916
[5], 1000 nM	–	1.03
[5], 3000 nM	–	0.856
[6], 4.1 nM	–	1.03
[6], 12.3 nM	–	1.03
[6], 37 nM	–	1
[6], 111.1 nM	–	1.06
[6], 333.3 nM	–	0.946
[6], 1000 nM	–	1.09
[6], 3000 nM	–	0.903
[7], 4.1 nM	–	0.927
[7], 12.3 nM	–	0.952
[7], 37 nM	–	1.13
[7], 111.1 nM	–	0.908
[7], 333.3 nM	–	0.964
[7], 1000 nM	–	0.96
[7], 3000 nM	–	0.913
[8], 4.1 nM	0.747	–
[8], 12.3 nM	0.689	–
[8], 37 nM	0.471	–
[8], 111.1 nM	0.593	–
[8], 333.3 nM	0.883	–
[8], 1000 nM	0.502	–
[8], 3000 nM	0.704	–
[9], 4.1 nM	0.748	–
[9], 12.3 nM	0.836	–
[9], 37 nM	0.56	–
[9], 111.1 nM	0.309	–
[9], 333.3 nM	0.495	–
[9], 1000 nM	0.751	–
[9], 3000 nM	0.725	–
[10], 4.1 nM	3.44	–
[10], 12.3 nM	0.615	–
[10], 37 nM	0.624	–
[10], 111.1 nM	0.684	–
[10], 333.3 nM	0.493	–
[10], 1000 nM	0.455	–
[10], 3000 nM	0.886	–
[11], 4.1 nM	0.809	–
[11], 12.3 nM	0.633	–
[11], 37 nM	0.706	–
[11], 111.1 nM	0.608	–
[11], 333.3 nM	0.538	–
[11], 1000 nM	0.815	–
[11], 3000 nM	0.521	–
[12], 4.1 nM	0.608	–
[12], 12.3 nM	0.861	–
[12], 37 nM	0.802	–
[12], 111.1 nM	0.784	–
[12], 333.3 nM	0.625	–
[12], 1000 nM	0.557	–
[12], 3000 nM	0.971	–
[13], 4.1 nM	0.751	–
[13], 12.3 nM	0.527	–
[13], 37 nM	0.691	–
[13], 111.1 nM	0.438	–
[13], 333.3 nM	0.382	–
[13], 1000 nM	0.743	–
[13], 3000 nM	0.801	–
[14], 4.1 nM	0.676	–
[14], 12.3 nM	0.401	–
[14], 37 nM	0.584	–
[14], 111.1 nM	0.591	–
[14], 333.3 nM	3.26	–
[14], 1000 nM	0.468	–
[14], 3000 nM	0.933	–

Cc1cc(Nc2cc(N3CCN(C)CC3)nc(Sc3ccc(NC(=O)C4CC4)cc3)n2)n[nH]1 [Tozasertib]
Conditions	phenotypic distance	surviving fraction
[1], 4.1 nM	–	0.866
[1], 12.3 nM	–	0.951
[1], 37 nM	–	0.797
[1], 111.1 nM	–	0.519
[1], 333.3 nM	–	0.467
[1], 1000 nM	–	0.391
[1], 3000 nM	–	0.413
[2], 4.1 nM	–	0.847
[2], 12.3 nM	–	0.898
[2], 37 nM	–	0.798
[2], 111.1 nM	–	0.743
[2], 333.3 nM	–	0.288
[2], 1000 nM	–	0.215
[2], 3000 nM	–	0.224
[3], 4.1 nM	–	0.971
[3], 12.3 nM	–	0.855
[3], 37 nM	–	0.81
[3], 111.1 nM	–	0.555
[3], 333.3 nM	–	0.535
[3], 1000 nM	–	0.453
[3], 3000 nM	–	0.482
[4], 4.1 nM	–	0.944
[4], 12.3 nM	–	0.959
[4], 37 nM	–	0.697
[4], 111.1 nM	–	0.423
[4], 333.3 nM	–	0.404
[4], 1000 nM	–	0.311
[4], 3000 nM	–	0.33
[5], 4.1 nM	–	0.814
[5], 12.3 nM	–	0.878
[5], 37 nM	–	0.929
[5], 111.1 nM	–	0.744
[5], 333.3 nM	–	0.711
[5], 1000 nM	–	0.728
[5], 3000 nM	–	0.722
[6], 4.1 nM	–	0.966
[6], 12.3 nM	–	0.942
[6], 37 nM	–	0.963
[6], 111.1 nM	–	0.484
[6], 333.3 nM	–	0.241
[6], 1000 nM	–	0.19
[6], 3000 nM	–	0.197
[7], 4.1 nM	–	0.899
[7], 12.3 nM	–	0.836
[7], 37 nM	–	0.773
[7], 111.1 nM	–	0.688
[7], 333.3 nM	–	0.737
[7], 1000 nM	–	0.697
[7], 3000 nM	–	0.579
[8], 4.1 nM	1.12	–
[8], 12.3 nM	0.667	–
[8], 37 nM	1.66	–
[8], 111.1 nM	4.34	–
[8], 333.3 nM	4.49	–
[8], 1000 nM	4.52	–
[8], 3000 nM	4.41	–
[9], 4.1 nM	1.38	–
[9], 12.3 nM	0.727	–
[9], 37 nM	1.05	–
[9], 111.1 nM	2.02	–
[9], 333.3 nM	5.67	–
[9], 1000 nM	6.71	–
[9], 3000 nM	6.04	–
[10], 4.1 nM	0.827	–
[10], 12.3 nM	1.02	–
[10], 37 nM	1.05	–
[10], 111.1 nM	2.58	–
[10], 333.3 nM	2.63	–
[10], 1000 nM	2.85	–
[10], 3000 nM	2.36	–
[11], 4.1 nM	0.87	–
[11], 12.3 nM	0.54	–
[11], 37 nM	1.16	–
[11], 111.1 nM	3.12	–
[11], 333.3 nM	2.58	–
[11], 1000 nM	3.12	–
[11], 3000 nM	2.47	–
[12], 4.1 nM	1.42	–
[12], 12.3 nM	0.649	–
[12], 37 nM	0.729	–
[12], 111.1 nM	2.85	–
[12], 333.3 nM	2.79	–
[12], 1000 nM	2.34	–
[12], 3000 nM	2.29	–
[13], 4.1 nM	0.542	–
[13], 12.3 nM	0.685	–
[13], 37 nM	0.782	–
[13], 111.1 nM	4.65	–
[13], 333.3 nM	7.94	–
[13], 1000 nM	8.6	–
[13], 3000 nM	8.14	–
[14], 4.1 nM	0.795	–
[14], 12.3 nM	0.771	–
[14], 37 nM	0.921	–
[14], 111.1 nM	2.37	–
[14], 333.3 nM	2.57	–
[14], 1000 nM	2.47	–
[14], 3000 nM	2.16	–

CN1C(=O)OC(C)(C)C1=O [Trimethadione]
Conditions	phenotypic distance	surviving fraction
[1], 4.1 nM	–	0.872
[1], 12.3 nM	–	1.05
[1], 37 nM	–	0.904
[1], 111.1 nM	–	0.943
[1], 333.3 nM	–	0.94
[1], 1000 nM	–	1.07
[1], 3000 nM	–	0.9
[2], 4.1 nM	–	0.949
[2], 12.3 nM	–	1.02
[2], 37 nM	–	0.937
[2], 111.1 nM	–	1.05
[2], 333.3 nM	–	1.01
[2], 1000 nM	–	0.949
[2], 3000 nM	–	1.03
[3], 4.1 nM	–	0.994
[3], 12.3 nM	–	1.14
[3], 37 nM	–	0.959
[3], 111.1 nM	–	1.03
[3], 333.3 nM	–	1
[3], 1000 nM	–	1
[3], 3000 nM	–	0.903
[4], 4.1 nM	–	0.999
[4], 12.3 nM	–	1.03
[4], 37 nM	–	0.936
[4], 111.1 nM	–	1.15
[4], 333.3 nM	–	1.04
[4], 1000 nM	–	1.01
[4], 3000 nM	–	0.759
[5], 4.1 nM	–	1.12
[5], 12.3 nM	–	1.04
[5], 37 nM	–	1.04
[5], 111.1 nM	–	0.867
[5], 333.3 nM	–	0.972
[5], 1000 nM	–	0.961
[5], 3000 nM	–	0.86
[6], 4.1 nM	–	1.11
[6], 12.3 nM	–	0.909
[6], 37 nM	–	1.04
[6], 111.1 nM	–	1.04
[6], 333.3 nM	–	1
[6], 1000 nM	–	0.96
[6], 3000 nM	–	0.885
[7], 4.1 nM	–	1.05
[7], 12.3 nM	–	0.973
[7], 37 nM	–	0.987
[7], 111.1 nM	–	1.03
[7], 333.3 nM	–	0.983
[7], 1000 nM	–	1.03
[7], 3000 nM	–	0.855
[8], 4.1 nM	0.619	–
[8], 12.3 nM	0.485	–
[8], 37 nM	0.498	–
[8], 111.1 nM	0.332	–
[8], 333.3 nM	0.419	–
[8], 1000 nM	0.395	–
[8], 3000 nM	0.509	–
[9], 4.1 nM	0.779	–
[9], 12.3 nM	0.495	–
[9], 37 nM	0.506	–
[9], 111.1 nM	0.324	–
[9], 333.3 nM	0.36	–
[9], 1000 nM	0.29	–
[9], 3000 nM	0.461	–
[10], 4.1 nM	0.624	–
[10], 12.3 nM	0.657	–
[10], 37 nM	0.665	–
[10], 111.1 nM	0.367	–
[10], 333.3 nM	0.471	–
[10], 1000 nM	0.385	–
[10], 3000 nM	0.844	–
[11], 4.1 nM	0.578	–
[11], 12.3 nM	0.705	–
[11], 37 nM	0.678	–
[11], 111.1 nM	0.582	–
[11], 333.3 nM	0.402	–
[11], 1000 nM	0.343	–
[11], 3000 nM	0.599	–
[12], 4.1 nM	0.536	–
[12], 12.3 nM	0.379	–
[12], 37 nM	0.464	–
[12], 111.1 nM	1.03	–
[12], 333.3 nM	0.604	–
[12], 1000 nM	0.565	–
[12], 3000 nM	0.885	–
[13], 4.1 nM	0.62	–
[13], 12.3 nM	0.587	–
[13], 37 nM	0.572	–
[13], 111.1 nM	0.439	–
[13], 333.3 nM	0.455	–
[13], 1000 nM	1.11	–
[13], 3000 nM	0.844	–
[14], 4.1 nM	0.493	–
[14], 12.3 nM	0.946	–
[14], 37 nM	0.598	–
[14], 111.1 nM	0.319	–
[14], 333.3 nM	0.852	–
[14], 1000 nM	0.673	–
[14], 3000 nM	0.994	–
